Laboratory results published in patent US7847070B2, “LUCA2 and antibodies that bind thereto” (Raven biotechnologies, inc., priority 2005, dated 2010).

System: Hs700T human pancreatic adenocarcinoma cells
Assay: Subcutaneous model of human pancreatic adenocarcinoma
Type: in vivo, NCR.nu/nu homozygous mice
Conditions: 5FU 35 mg/kg intraperitoneally, once weekly for 4 treatments
Procedure: This study was designed to test the dose-responsive anti-tumor data for an anti-LUCA2 antibody in a subcutaneous model of pancreatic cancer. Fluorouracil (5FU), a cytotoxic chemotherapy agent, was used as a positive control and tested to see if there was a cumulative effect with mu-anti-LUCA2 and 5FU.
Cultured Hs700T human pancreatic adenocarcinoma cells were trypsinized, washed in media, spun down and resuspended in media at 100 million cells per milliliter of media (5 million cells per 0.05 mL volume), then mixed in an equal volume of Matrigel® for a final injection volume of 0.1 mL. 72 NCR.nu/nu homozygous mice were dosed intraperitoneally during the study. The groups were (1) saline control at 0.2 mL, twice weekly for 10 treatments (2) mu-anti-LUCA2 antibody at 50 mg/kg, twice weekly for 10 treatments, (3) Fluorouracil (5FU) at 35 mg/kg, once weekly for 4 treatments, and (4) mu-anti-LUCA2 antibody at 50 mg/kg and 5FU at 35 mg/kg, twice weekly for 10 treatments.
Tumor growth over time was evaluated to determine anti-tumor activity. Tumors were palpable prior to initiation of therapy. Animals responding to antibody treatment were maintained after treatment cessation to determine time to tumor regrowth.

Structure (SMILES): O=c1[nH]cc(F)c(=O)[nH]1 [5FU, Fluorouracil]
- tumor volume inhibition compared to saline control: approximately 21.5%
